Measurements taken from BindingDB's records for doi:10.1124/jpet.104.081257 (Abbott Laboratories, 2005).

How the values were obtained:
[1] = biological target: T1, Thyroid hormone receptor alpha (Rattus norvegicus, UniProt P63059)
T1 sequence (P63059 whole entry): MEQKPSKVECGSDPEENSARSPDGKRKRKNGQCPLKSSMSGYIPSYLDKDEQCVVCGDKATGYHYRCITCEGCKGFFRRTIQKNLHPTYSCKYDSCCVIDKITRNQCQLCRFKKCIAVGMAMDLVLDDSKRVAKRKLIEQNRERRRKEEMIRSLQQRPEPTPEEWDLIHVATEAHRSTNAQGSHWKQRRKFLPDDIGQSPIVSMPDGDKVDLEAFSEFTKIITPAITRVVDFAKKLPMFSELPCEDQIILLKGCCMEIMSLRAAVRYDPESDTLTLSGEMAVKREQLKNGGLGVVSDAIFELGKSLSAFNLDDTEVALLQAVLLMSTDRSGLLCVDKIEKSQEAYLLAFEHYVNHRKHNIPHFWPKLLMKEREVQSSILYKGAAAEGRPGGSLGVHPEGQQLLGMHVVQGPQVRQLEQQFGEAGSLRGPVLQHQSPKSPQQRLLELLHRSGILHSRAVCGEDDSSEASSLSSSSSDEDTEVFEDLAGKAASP

[2] = biological target: T2, Thyroid hormone receptor beta (Rattus norvegicus, UniProt P18113)
T2 sequence (P18113 whole entry): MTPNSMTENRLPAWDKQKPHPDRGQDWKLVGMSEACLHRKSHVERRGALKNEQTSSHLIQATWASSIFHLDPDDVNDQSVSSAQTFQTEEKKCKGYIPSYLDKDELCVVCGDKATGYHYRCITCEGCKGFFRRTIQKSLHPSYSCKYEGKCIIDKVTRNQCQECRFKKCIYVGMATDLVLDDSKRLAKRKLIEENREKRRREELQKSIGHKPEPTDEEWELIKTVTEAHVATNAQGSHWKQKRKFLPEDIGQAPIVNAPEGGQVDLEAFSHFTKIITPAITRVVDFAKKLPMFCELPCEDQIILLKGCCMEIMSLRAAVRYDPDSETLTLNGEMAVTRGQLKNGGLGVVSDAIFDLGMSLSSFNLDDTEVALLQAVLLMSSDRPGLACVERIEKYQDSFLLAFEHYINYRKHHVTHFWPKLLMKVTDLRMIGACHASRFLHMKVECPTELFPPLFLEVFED

[3] = biological target: Estrogen receptor beta (Homo sapiens, UniProt Q92731)
Chain of Estrogen receptor beta (Q92731 whole entry): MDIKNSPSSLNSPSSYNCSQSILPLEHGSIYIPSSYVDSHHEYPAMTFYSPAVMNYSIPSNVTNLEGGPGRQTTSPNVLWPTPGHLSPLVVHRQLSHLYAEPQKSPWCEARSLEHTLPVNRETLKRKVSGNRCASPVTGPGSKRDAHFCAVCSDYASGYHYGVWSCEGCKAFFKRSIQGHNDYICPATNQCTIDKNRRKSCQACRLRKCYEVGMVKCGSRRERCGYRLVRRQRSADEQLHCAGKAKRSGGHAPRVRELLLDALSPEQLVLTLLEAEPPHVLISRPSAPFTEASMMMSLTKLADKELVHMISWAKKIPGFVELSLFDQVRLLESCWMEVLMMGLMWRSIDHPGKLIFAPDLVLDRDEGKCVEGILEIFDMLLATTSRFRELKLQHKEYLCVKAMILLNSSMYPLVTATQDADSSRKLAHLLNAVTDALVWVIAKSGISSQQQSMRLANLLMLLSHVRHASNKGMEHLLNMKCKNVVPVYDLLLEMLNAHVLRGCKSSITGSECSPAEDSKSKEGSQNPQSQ

[4] = biological target: Progesterone receptor (Homo sapiens) (UniProt P06401)
Chain of Progesterone receptor (Homo sapiens) (P06401 whole entry, looked up): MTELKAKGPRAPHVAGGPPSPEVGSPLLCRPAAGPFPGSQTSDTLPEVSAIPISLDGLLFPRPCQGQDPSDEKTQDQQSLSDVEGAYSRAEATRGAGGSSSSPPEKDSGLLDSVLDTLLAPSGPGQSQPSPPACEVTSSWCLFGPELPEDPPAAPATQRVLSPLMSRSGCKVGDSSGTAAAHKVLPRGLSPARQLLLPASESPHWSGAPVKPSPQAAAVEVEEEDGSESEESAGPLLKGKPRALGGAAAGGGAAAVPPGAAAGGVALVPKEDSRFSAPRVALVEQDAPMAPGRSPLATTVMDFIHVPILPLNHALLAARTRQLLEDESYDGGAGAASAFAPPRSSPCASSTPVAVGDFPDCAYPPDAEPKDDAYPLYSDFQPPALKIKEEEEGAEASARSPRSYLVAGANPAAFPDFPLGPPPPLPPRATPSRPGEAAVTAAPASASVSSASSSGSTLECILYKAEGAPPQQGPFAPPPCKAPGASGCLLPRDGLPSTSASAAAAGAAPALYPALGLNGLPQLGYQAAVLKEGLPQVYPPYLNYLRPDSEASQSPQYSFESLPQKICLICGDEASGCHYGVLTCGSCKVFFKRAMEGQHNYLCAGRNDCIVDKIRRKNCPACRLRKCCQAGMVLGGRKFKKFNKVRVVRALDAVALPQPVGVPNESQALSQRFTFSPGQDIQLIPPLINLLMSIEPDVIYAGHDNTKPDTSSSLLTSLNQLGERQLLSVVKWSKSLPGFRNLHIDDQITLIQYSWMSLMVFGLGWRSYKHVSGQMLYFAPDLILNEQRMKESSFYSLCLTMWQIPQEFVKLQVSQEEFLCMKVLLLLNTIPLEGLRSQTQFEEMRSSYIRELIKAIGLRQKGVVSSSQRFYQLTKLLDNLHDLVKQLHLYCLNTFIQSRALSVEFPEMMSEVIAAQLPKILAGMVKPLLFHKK

[5] = biological target: T3, Glucocorticoid receptor (Rattus norvegicus, UniProt P06536)
T3 sequence (P06536 whole entry): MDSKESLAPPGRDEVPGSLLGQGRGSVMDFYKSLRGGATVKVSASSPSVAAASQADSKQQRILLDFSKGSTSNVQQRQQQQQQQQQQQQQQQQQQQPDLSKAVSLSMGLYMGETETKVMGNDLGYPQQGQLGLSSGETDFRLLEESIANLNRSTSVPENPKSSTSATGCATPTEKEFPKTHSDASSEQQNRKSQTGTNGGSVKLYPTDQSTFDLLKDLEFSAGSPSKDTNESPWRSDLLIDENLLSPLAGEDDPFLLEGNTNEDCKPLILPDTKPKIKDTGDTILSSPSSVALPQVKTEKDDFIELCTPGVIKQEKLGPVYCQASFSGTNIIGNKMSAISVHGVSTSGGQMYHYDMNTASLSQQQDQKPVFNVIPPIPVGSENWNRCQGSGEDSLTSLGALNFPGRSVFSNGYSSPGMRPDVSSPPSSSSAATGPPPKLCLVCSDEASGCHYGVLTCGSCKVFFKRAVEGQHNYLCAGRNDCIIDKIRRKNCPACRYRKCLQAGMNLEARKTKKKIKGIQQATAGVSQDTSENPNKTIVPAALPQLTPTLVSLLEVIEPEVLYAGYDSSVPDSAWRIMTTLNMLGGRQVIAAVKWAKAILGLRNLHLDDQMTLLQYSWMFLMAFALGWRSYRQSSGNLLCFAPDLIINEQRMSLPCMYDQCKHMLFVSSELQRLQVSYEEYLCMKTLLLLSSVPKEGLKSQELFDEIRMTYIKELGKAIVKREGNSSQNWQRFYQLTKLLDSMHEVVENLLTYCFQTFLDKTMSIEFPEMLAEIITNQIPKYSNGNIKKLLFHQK

[6] = biological target: T4, Mineralocorticoid receptor (Rattus norvegicus, UniProt P22199)
T4 sequence (P22199 whole entry): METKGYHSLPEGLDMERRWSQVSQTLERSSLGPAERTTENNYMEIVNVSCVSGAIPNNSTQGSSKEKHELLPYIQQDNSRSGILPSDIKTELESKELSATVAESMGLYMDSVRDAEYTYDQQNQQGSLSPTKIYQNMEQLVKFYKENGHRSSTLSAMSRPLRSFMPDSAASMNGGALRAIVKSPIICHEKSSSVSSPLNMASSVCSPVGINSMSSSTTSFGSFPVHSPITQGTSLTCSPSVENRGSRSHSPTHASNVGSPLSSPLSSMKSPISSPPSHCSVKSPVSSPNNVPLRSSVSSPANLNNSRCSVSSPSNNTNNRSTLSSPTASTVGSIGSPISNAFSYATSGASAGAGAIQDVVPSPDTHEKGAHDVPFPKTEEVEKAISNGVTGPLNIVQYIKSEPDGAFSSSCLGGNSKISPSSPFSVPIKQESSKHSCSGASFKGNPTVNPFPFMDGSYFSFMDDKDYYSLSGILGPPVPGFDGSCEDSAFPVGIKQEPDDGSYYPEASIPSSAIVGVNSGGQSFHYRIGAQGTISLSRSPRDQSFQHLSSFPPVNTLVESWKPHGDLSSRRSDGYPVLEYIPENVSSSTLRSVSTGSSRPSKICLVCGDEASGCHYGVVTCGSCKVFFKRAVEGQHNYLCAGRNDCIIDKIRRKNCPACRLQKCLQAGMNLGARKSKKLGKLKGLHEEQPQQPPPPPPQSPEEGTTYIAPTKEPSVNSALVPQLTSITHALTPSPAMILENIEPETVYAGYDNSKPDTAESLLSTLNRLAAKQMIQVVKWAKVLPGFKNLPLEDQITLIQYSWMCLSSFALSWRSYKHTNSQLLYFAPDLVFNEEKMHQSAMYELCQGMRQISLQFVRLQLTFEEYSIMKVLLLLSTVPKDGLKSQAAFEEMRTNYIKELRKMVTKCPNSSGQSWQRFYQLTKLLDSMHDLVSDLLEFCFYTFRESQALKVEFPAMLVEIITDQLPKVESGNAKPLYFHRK

[7] = biological target: T5, Estrogen receptor (Rattus norvegicus, UniProt P06211)
T5 sequence (P06211 whole entry): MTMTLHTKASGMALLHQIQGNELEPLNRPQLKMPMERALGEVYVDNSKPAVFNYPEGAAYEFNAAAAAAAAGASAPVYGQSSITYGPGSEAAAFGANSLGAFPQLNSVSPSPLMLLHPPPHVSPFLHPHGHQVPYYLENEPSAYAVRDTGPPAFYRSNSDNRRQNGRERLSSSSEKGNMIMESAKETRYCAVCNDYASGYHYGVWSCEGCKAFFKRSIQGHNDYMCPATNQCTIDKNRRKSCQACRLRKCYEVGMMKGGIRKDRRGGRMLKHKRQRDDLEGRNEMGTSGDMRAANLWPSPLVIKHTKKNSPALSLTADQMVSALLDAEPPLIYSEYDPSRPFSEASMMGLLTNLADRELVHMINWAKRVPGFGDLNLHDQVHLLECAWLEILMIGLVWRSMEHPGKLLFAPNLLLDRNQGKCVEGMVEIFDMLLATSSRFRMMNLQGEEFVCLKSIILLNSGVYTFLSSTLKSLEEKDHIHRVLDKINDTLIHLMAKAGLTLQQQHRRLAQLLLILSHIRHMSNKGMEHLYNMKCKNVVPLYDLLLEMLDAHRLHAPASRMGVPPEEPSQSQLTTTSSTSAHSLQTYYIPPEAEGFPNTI

| Ki [1] [µM] | Ki [2] [µM] | Ki [3] [µM] | Ki [4] [µM] | Ki [5] [µM] | Ki [6] [µM] | Ki [7] [µM] | Structure (SMILES) |
| --- | --- | --- | --- | --- | --- | --- | --- |
| 0.67 | 1.5 | 0.11 | 0.00081 | 0.00027 | 0.44 | 0.012 | CC#C[C@]1(O)CC[C@H]2[C@@H]3CCC4=CC(=O)CCC4=C3[C@@H](c3ccc(N(C)CCO[C@H]4CCC5C(C4)C[C@@H](O)C4C5C[C@H](O)C5C(C(C)CCC(=O)O)CCC45)cc3)C[C@@]21C (stereo partly specified) [A-348441] |
| > 1.25 | > 2.25 | – | – | – | 0.64 | > 0.2 | CC#C[C@]1(O)CC[C@H]2[C@@H]3CCC4=CC(=O)CCC4=C3[C@@H](c3ccc(N(C)C)cc3)C[C@@]21C [CAS_84371-65-3] |
